The values that follow are results of earlier work, collected in patent US20250367260A1, “TIRZEPATIDE COMPOSITIONS AND PREPARATION METHOD” (Galenicum Health S.L.U., priority 2024, published 2025).

Take `O=S(=O)(O)CC(O)CNC(CO)(CO)CO` (stereo not drawn) [TAPSO, 3-[N-Tris(hydroxymethyl)methylamino]-2-hydroxypropanesulfonic acid]: the pKa entry is on record as “≈ 7.6”.
As to `O=S(=O)(O)CCNC(CO)(CO)CO` [TES, N-[Tris(hydroxymethyl)methyl]-2-aminoethanesulfonic acid], the pKa result is “≈ 7.4”.
With `O=S(=O)(O)CC(O)CN(CCO)CCO` (stereo not drawn) [DIPSO, 3-(N,N-Bis[2-hydroxyethyl]amino)-2-hydroxypropanesulfonic acid], the pKa result is reported as “≈ 7.6”.
As to `O=S(=O)(O)CCCN1CCN(CCO)CC1` [HEPPS, 4-(2-Hydroxyethyl)-1-piperazinepropanesulfonic acid], the pKa result is on record as “≈ 8.1”.
As for `O=S(=O)(O)CCN1CCN(CCO)CC1` [HEPES, 4-(2-hydroxyethyl)-1-piperazineethanesulfonic acid], the pKa result was “≈ 7.5”.
With `O=C(O)CNC(CO)(CO)CO` [Tricine, N-tris(hydroxymethyl)methylglycine], the pKa result is “≈ 8.2”.
